# Experimental data reported in patent publication US12350259B2, “Methods of treating migraine” (Allergan Pharmaceuticals International Limited, priority 2021, dated 2025).
# Like-named read-outs stand apart in the source and are kept apart here.
# Columns and labels:
# [1] = molecular target: P-gp (Homo sapiens, UniProt P08183); test: Transporter substrate; assay type: in vitro ADME
# [2] = molecular target: UGT1A1 (Homo sapiens, UniProt P22309); test: Enzyme inhibition; assay type: in vitro ADME; settings: clinically relevant concentrations
# [3] = Food effect study (high-fat meal), atogepant IR tablet: plasma PK; assay type: in vivo, human; settings: for AUC(0-inf) / AUC(0-t) / Cmax / Tmax / Vd/F: both sexes, human, plasma, oral, 60 mg; for Vd/F: read-out: Vz/F
# Method: A single-center, randomized, open-label, single-dose, 2-period cross-over study was conducted to evaluate the effect of a high-fat meal on the systemic exposure of atogepant following single-dose administration of an immediate release (IR) tablet in healthy adult participants. Secondary objectives were to evaluate the secondary PK parameters of atogepant following single-dose administration of an IR tablet formulation of atogepant in healthy participants under fasted and fed conditions; and to evaluate the safety and tolerability profiles of single-dose atogepant in healthy adult participants under fed and fasted conditions. […] Plasma samples were collected pre-dose and at predetermined time intervals up to 48 hours after dosing. Atogepant plasma concentrations were determined using a validated LC-MS/MS assay and the pharmacokinetic (PK) parameters were calculated using WinNonlin. A linear mixed-effects model with sequence, study intervention, and period as fixed effects, and participant nested within sequence as a random effect was used to compare the natural logarithm transformed values of atogepant PK parameters AUC0-t, AUC0-inf, and Cmax. Safety was monitored via ECGs, vital signs, clinical labs, and adverse events. […] Screening occurred within 21 days before dosing (Days −21 to −1). The study intervention period was scheduled for a total of 11 days (Days −1 to 10), and the follow-up visit occurred with serum chemistry on day 38 (±3), (30 [±3] days after the last dose on Day 8). PK blood samples for analysis of plasma atogepant concentrations were collected starting on Days 1 (period 1) and 8 (period 2); at 0 hour (predose) and 0.5, 1, 1.5, 2, 3, 4, 6, 8, 12, 16, 24, 36, and 48 hours postdose. • Linear mixed effects model with natural logarithm-transformed values of AUC0-t, AUC0-inf, and Cmax, as the dependent variable and terms for study intervention, sequence, and period as fixed independent variables and participant nested in sequence as a random effect.
# [4] = molecular target: MAO-A (Homo sapiens, UniProt P21397); test: Enzyme inhibition; assay type: in vitro ADME; settings: clinically relevant concentrations
# [5] = molecular target: CYP3A4 (Homo sapiens, UniProt P08684); test: In vitro CYP inhibition; assay type: in vitro ADME; settings: clinically relevant concentrations
# [6] = molecular target: OAT1 (Homo sapiens, UniProt Q4U2R8); test: Transporter inhibition; assay type: in vitro ADME; settings: clinically relevant concentrations
# [7] = system: plasma protein; test: Plasma protein binding in human plasma; assay type: in vitro ADME; settings: range of 0.1 to 10 μM
# [8] = Plasma protein binding in human plasma; assay type: in vitro ADME; settings: human plasma
# [9] = molecular target: OAT3 (Homo sapiens, UniProt Q8TCC7); test: Transporter inhibition; assay type: in vitro ADME; settings: clinically relevant concentrations
# [10] = Study Intervention A: 1 × 60 mg IR tablet, fed
# [11] = Study Intervention B: 1 × 60 mg IR tablet, fasted
# P-gp, sequence (P08183 whole entry): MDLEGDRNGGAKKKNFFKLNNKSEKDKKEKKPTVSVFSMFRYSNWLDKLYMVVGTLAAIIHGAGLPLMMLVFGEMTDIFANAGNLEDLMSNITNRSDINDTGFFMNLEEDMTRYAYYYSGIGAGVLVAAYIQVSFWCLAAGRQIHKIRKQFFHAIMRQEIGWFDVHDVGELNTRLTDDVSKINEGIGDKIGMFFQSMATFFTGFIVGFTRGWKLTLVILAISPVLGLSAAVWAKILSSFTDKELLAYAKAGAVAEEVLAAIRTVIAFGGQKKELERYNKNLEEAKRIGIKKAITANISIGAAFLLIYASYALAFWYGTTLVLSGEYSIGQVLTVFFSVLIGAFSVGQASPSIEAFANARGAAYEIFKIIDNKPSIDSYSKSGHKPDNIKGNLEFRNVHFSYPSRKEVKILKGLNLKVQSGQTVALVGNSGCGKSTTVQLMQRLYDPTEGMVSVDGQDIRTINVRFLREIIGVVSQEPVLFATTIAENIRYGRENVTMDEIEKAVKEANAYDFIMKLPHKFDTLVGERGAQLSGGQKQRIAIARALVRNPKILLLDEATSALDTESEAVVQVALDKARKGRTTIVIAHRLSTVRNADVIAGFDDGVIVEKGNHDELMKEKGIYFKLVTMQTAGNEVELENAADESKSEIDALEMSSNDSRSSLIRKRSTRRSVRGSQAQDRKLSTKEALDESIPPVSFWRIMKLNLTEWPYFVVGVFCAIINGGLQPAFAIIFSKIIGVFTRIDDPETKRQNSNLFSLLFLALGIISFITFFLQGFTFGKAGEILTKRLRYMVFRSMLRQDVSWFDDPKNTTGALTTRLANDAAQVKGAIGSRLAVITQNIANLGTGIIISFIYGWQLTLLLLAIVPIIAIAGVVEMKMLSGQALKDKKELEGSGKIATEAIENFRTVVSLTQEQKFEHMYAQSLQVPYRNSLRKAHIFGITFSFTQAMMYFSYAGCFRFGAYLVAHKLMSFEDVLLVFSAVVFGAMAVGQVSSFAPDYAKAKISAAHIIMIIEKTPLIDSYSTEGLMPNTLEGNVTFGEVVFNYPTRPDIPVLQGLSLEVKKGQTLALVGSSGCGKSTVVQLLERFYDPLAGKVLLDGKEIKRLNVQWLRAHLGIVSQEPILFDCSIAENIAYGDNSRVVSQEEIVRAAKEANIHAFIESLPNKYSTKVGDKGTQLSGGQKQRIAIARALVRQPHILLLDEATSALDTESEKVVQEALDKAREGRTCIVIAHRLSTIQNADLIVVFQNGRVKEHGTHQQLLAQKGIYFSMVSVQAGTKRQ
# CYP3A4, sequence (P08684 whole entry): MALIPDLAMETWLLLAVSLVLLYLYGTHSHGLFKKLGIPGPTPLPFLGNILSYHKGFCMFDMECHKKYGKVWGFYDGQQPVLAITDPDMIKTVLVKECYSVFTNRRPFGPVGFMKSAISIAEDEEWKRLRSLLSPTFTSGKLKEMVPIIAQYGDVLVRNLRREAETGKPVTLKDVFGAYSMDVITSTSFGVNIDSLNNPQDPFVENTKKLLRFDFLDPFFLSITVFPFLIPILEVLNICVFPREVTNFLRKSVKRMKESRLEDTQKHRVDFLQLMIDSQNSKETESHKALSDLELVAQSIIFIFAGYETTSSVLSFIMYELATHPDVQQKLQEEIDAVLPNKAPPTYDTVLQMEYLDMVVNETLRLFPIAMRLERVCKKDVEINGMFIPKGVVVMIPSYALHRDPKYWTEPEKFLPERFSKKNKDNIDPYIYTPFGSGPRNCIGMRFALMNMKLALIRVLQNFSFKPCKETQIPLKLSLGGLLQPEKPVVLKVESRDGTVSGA
# OAT1, sequence (Q4U2R8 whole entry): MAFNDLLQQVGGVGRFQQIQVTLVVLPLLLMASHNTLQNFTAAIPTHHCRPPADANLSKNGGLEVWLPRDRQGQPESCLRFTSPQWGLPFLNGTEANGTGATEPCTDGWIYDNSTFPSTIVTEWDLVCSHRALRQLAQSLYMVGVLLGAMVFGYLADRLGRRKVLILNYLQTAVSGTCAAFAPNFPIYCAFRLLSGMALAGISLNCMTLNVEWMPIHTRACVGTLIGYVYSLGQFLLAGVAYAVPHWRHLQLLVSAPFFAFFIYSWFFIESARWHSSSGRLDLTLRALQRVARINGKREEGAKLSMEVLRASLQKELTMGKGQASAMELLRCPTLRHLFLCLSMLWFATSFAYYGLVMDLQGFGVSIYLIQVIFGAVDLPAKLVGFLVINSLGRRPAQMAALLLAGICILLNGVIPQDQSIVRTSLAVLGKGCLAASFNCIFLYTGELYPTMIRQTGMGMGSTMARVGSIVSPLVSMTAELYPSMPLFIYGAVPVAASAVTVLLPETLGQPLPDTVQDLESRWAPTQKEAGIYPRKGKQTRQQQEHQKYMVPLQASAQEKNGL
# OAT3, sequence (Q8TCC7 whole entry): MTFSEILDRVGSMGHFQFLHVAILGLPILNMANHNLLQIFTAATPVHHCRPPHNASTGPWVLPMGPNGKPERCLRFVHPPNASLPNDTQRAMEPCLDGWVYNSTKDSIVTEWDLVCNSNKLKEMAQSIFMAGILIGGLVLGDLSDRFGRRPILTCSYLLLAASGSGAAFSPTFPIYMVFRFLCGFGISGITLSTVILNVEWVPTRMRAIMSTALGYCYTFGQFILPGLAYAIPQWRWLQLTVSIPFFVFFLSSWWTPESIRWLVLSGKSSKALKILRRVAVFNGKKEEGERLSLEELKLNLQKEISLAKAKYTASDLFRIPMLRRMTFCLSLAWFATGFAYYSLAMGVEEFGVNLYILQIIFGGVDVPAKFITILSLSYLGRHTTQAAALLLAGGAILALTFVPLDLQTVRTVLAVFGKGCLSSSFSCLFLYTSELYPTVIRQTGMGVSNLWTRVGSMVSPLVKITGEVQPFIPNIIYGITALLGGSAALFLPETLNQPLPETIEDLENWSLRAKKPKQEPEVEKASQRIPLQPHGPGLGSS
# UGT1A1, sequence (P22309 26-533): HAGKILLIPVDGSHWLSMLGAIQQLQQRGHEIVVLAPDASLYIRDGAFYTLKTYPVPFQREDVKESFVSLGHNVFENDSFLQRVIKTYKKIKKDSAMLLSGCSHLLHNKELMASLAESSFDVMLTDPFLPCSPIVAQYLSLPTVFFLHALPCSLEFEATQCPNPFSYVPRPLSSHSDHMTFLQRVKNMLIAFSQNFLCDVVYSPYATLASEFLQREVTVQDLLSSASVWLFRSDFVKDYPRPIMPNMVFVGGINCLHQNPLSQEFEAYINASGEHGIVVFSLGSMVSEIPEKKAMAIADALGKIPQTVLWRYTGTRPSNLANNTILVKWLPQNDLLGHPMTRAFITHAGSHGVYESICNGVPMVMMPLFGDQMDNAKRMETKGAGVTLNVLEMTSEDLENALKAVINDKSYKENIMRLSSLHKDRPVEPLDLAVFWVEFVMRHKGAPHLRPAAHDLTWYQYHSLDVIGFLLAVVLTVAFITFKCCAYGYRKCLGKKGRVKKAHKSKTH
# MAO-A, sequence (P21397 whole entry): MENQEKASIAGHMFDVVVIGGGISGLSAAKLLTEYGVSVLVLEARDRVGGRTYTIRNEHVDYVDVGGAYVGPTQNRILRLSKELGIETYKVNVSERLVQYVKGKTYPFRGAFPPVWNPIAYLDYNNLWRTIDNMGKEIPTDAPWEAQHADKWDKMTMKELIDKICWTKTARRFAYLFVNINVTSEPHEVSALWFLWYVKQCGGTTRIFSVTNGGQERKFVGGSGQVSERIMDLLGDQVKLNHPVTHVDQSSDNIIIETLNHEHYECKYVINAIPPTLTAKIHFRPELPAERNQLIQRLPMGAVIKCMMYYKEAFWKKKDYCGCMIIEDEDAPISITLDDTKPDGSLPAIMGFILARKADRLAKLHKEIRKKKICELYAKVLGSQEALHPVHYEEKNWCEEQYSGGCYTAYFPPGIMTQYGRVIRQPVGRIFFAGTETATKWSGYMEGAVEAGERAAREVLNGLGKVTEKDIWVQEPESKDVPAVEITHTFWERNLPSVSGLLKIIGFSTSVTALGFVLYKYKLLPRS
compound,measurement,setting,value
"C[C@@H]1[C@H](c2c(F)ccc(F)c2F)C[C@H](NC(=O)c2cnc3c(c2)C[C@@]2(C3)C(=O)Nc3ncccc32)C(=O)N1CC(F)(F)F [atogepant, (3′S)-N-[(3S,5S,6R)-6-methyl-2-oxo-1-(2,2,2-trifluoroethyl)-5-(2,3,6-trifluorophenyl)piperidin-3-yl]-2′-oxo-1′,2′,5,7-tetrahydrospiro[cyclopenta[b]pyridine-6,3′-pyrrolo[2,3-b]pyridine]-3-carboxamide]",substrate of P-gp,[1],substrate
same,inhibition of UGT1A1,[2],does not inhibit
same,CL/F,[3]; [10],26.10 L/h
same,Tlag (median),[3]; [10],0 h
same,tt/2,[3]; [10],9.41 h
same,λz,[3]; [10],0.0840 h⁻¹
same,CL/F,[3]; [11],21.03 L/h
same,Tlag (median),[3]; [11],0 h
same,tt/2,[3]; [11],9.71 h
same,λz,[3]; [11],0.0799 h⁻¹
same,AUC(0-inf),"[3]; Fasted (Ref), read-out: AUC0-inf GLSM",3160 ng·h/mL
same,AUC(0-t),"[3]; Fasted (Ref), read-out: AUC0-t GLSM",3130 ng·h/mL
same,Cmax,"[3]; Fasted (Ref), read-out: Cmax GLSM",677 ng/mL
same,Tmax,"[3]; Fasted (ref), read-out: Tmax Median",2.01 h
same,AUC(0-inf),"[3]; Fed (Test), read-out: AUC0-inf GLSM",2610 ng·h/mL
same,AUC(0-t),"[3]; Fed (Test), read-out: AUC0-t GLSM",2560 ng·h/mL
same,Cmax,"[3]; Fed (Test), read-out: Cmax GLSM",527 ng/mL
same,Tmax,"[3]; Fed (Test), read-out: Tmax Median",2.01 h
same,AUC(0-inf),"[3]; Study Intervention A: 1 × 60 mg IR tablet, fed, read-out: AUC0-inf",3200 ng·h/mL
same,AUC(0-t),"[3]; Study Intervention A: 1 × 60 mg IR tablet, fed, read-out: AUC0-t",3090 ng·h/mL
same,Cmax,"[3]; Study Intervention A: 1 × 60 mg IR tablet, fed, read-out: Cmax",594 ng/mL
same,Tmax,"[3]; Study Intervention A: 1 × 60 mg IR tablet, fed, read-out: Tmax (median)",2.01 h
same,Vd/F,[3]; [10],368 L
same,AUC(0-inf),"[3]; Study Intervention B: 1 × 60 mg IR tablet, fasted, read-out: AUC0-inf",3490 ng·h/mL
same,AUC(0-t),"[3]; Study Intervention B: 1 × 60 mg IR tablet, fasted, read-out: AUC0-t",3460 ng·h/mL
same,Cmax,"[3]; Study Intervention B: 1 × 60 mg IR tablet, fasted, read-out: Cmax",732 ng/mL
same,Tmax,"[3]; Study Intervention B: 1 × 60 mg IR tablet, fasted, read-out: Tmax (median)",2.01 h
same,Vd/F,[3]; [11],299 L
same,Tmax,"[3]; fed vs fasted, read-out: Tmax Median of Paired Differences (Test Minus Reference)",0.5 h
same,AUC0-inf Ratio of GLSMs Test/Ref,[3]; fed vs fasted,82.53%
same,AUC0-t Ratio of GLSMs Test/Ref,[3]; fed vs fasted,81.70%
same,Cmax Ratio of GLSMs Test/Ref,[3]; fed vs fasted,77.90%
same,effect on median time to maximum atogepant plasma concentration,[3]; high-fat meal,no effect
same,reduction of AUC,[3]; high-fat meal (fed) vs fasted,approximately 18%
same,inhibition of MAO-A,[4],does not inhibit
same,inhibition of CYP3A4,[5],not an inhibitor
same,inhibition of OAT1,[6],not an inhibitor
same,concentration dependence of plasma protein binding,[7],not concentration-dependent
same,fraction unbound,[8],~0.047
same,inhibition of OAT3,[9],not an inhibitor
